Assay results: ChEMBL document CHEMBL1150173, “Antiviral saponins from Tieghemella heckelii” (J Nat Prod, 2002)
The source made the active and inactive calls. No cut-off for these calls is given here.

Columns and labels:
[1] = system: Human immunodeficiency virus 1; experiment: Inhibition of HIV1 in wild type CHO cells mediated human HeLa-CD4+ cell fusion assessed as inhibition of syncytium formation at 20 uM by cell-cell fusion assay; assay type: functional
HeLa = experiment: Cytotoxicity against human HeLa cells expressing CD4+ construct at 20 uM after 3 days by MTT assay; assay type: cell-based; conditions: 72 h

Structure (SMILES) | Activity [1] | Activity (HeLa) | inhibition at 20 µM ([1]; Human immunodeficiency virus 1, CHO)
CC1(C)CC[C@]2(C(=O)O)[C@H](O)C[C@]3(C)C(=CC[C@@H]4[C@@]5(C)C[C@H](O)[C@H](O[C@@H]6O[C@H](C(=O)O)[C@@H](O)[C@H](O)[C@H]6O)[C@@](C)(CO)[C@@H]5[C@H](O)C[C@]43C)[C@@H]2C1 | inactive |  | 
CC1(C)CC[C@]2(C(=O)O)[C@H](O)C[C@]3(C)C(=CC[C@@H]4[C@@]5(C)C[C@H](O)[C@H](O[C@@H]6O[C@H](CO)[C@@H](O)[C@H](O)[C@H]6O)[C@@](C)(CO)[C@@H]5[C@H](O)C[C@]43C)[C@@H]2C1 | inactive |  | 
C[C@@H]1O[C@@H](O[C@@H]2[C@@H](O)[C@H](O[C@@H]3[C@@H](O)[C@@H](O)[C@H](O[C@H]4[C@H](OC(=O)[C@]56CCC(C)(C)C[C@H]5C5=CC[C@@H]7[C@@]8(C)C[C@H](O)[C@H](O[C@@H]9O[C@H](CO)[C@@H](O)[C@H](O)[C@H]9O)[C@@](C)(CO)[C@@H]8[C@H](O)C[C@@]7(C)[C@]5(C)C[C@H]6O)OC[C@H](O)[C@@H]4O)O[C@H]3C)OC[C@H]2O)[C@H](O)[C@H](O)[C@H]1O [ARGANINE C] |  | Non-toxic | 100%
C[C@@H]1O[C@@H](O[C@@H]2[C@@H](O)[C@H](O[C@@H]3[C@@H](O)[C@@H](O)[C@H](O[C@H]4[C@H](OC(=O)[C@]56CCC(C)(C)C[C@H]5C5=CC[C@@H]7[C@@]8(C)C[C@H](O)[C@H](O[C@@H]9O[C@H](C(=O)O)[C@@H](O)[C@H](O)[C@H]9O)[C@@](C)(CO)[C@@H]8[C@H](O)C[C@@]7(C)[C@]5(C)C[C@H]6O)OC[C@H](O)[C@@H]4O)O[C@H]3C)OC[C@H]2O)[C@H](O)[C@H](O)[C@H]1O [TIEGHEMELIN] |  | Non-toxic | 
